Assay results from patent US20040171489A1, “Synergistic active compound combinations for controlling harmful plants” (priority 1998, published 2004).

Columns and labels:
[1] = tested on: winter wheat; assay: Example 16 field trial, post-emergence, 2- to 3-leaf stage: crop damage; type: in vivo, Triticum aestivum; conditions: 50 g of ai/ha; 69 days after application
Method: (§1) The herbicidal efficacy of the active compounds or active compound mixtures was scored visually using the treated plots in comparison to untreated control plots. The damage and development of all above-ground parts of the plants were recorded. Scoring was carried out using a percentage scale (100% effect=all plants killed; 50% effect=50% of the plants and the green parts of the plants killed; 0% effect=no noticeable effect=like control plot. The scores of in each case 4 plots were averaged.
(§2) If the observed activity values already exceed the formal sum of the values for the trials with the individual applications, they also exceed the expected value according to Colby which is calculated using the following formula and which is likewise considered to be an indication of synergism (cf. S. R. Colby; in Weeds 15 (1967) p. 20 to 22):
(§3) Crop plants were grown outdoors on plots under natural outdoor conditions, and seeds or rhizome pieces of typical harmful plants were laid out or the natural weed growth was utilized. […] After the application, for example 2, 4, 6 and 8 weeks after the application, the effect of the preparations was scored visually by comparison with untreated controls (cf. scoring in Section 1). […]

[2] = tested on: Capsella bursa-pastoris; assay: Example 11 field trial, 2- to 4-leaf stage: herbicidal effect; type: in vivo; conditions: 28 days after application
Method: as §1, §2
(§4) Crop plants were grown outdoors on plots under natural outdoor conditions, and seeds or rhizome pieces of typical harmful plants were laid out or the natural weed growth was utilized. Treatment with the compositions according to the invention was carried out after the harmful plants had emerged and the crop plants were, generally, at the 2- to 4-leaf stage; in some cases (as stated), application of individual active compounds or active compound combinations was carried out pre-emergence (cf. Section 1) or post-emergence (cf. Section 2) or as a sequential treatment partly pre-emergence and/or post-emergence. After the application, for example 2, 4, 6 and 8 weeks after the application, the effect of the preparations was scored visually by comparison with untreated controls (cf. scoring in Section 1). In the field trial as well, the compositions according to the invention have synergistic herbicidal activity against a broad spectrum of economically important weed grasses and broad-leaved weeds. […] Moreover, the effects in essential phases of the scoring period were above the expected values according to Colby, also indicating synergism. In contrast, the crop plants were, as a consequence of the treatments with the herbicidal compositions, damaged only to a small degree, if at all.

[3] = tested on: Setaria faberi; assay: Example 17 field trial, pre-emergence: herbicidal effect; type: in vivo; conditions: 16 days after application
Description: (§5) Seeds or rhizome pieces of monocotyledonous and dicotyledonous weed plants are placed in sandy loam soil in pots and covered with soil. The compositions, formulated in the form of concentrated aqueous solutions, wettable powders or emulsion concentrates, are then applied to the surface of the soil cover as aqueous solution, suspension or emulsion at an application rate of 600 to 800 l of water/ha (converted), in various dosages. After the treatment, the pots are placed in a greenhouse and kept under good growth conditions for the weeds. After the test plants have emerged, the damage to the plants or the negative effects on the emergence is scored visually after a test period of 3 to 4 weeks by comparison with untreated controls. As shown by the test results, the compositions according to the invention have good herbicidal pre-emergence activity against a broad spectrum of weed grasses and broad-leaved weeds.
as §1, §2, §4

[4] = tested on: Ipomoea hederacea; assay: as above; type: in vivo; conditions: 16 days after application
Description: as §5, §1, §2, §4

[5] = tested on: Matricaria chamomilla; assay: Example 14 field trial, 2- to 4-leaf stage: herbicidal effect; type: in vivo; conditions: 28 days after application
Method: as §1, §2, §4

[6] = tested on: Oryza sativa (rice); assay: Example 22 field trial, 2-leaf stage: crop damage; type: in vivo; conditions: 14 days after application
Method: as §1, §2, §4

[7] = tested on: Oryza sativa (rice); assay: Example 20 field trial, 3-leaf stage: crop damage; type: in vivo; conditions: 31 days after application
Method: as §1, §2, §4

[8] = tested on: Capsella bursa-pastoris; assay: Example 9 field trials, application 1-3 leaf stage broad-leaved weeds: herbicidal effect; type: in vivo; conditions: 100 g of ai/ha; 120 to 160 days after application
Method: as §1, §2, §4

[9] = tested on: Alopecurus myosuroides; assay: as above; type: in vivo; conditions: 100 g of ai/ha; 120 to 160 days after application
Method: as §1, §2, §4

[10] = tested on: Oryza sativa (rice); assay: Example 21 field trial, 4-leaf stage: crop damage; type: in vivo; conditions: 42 days after application
Method: as §1, §2
as §4, with “In contrast, the crop plants were, as a consequence of the treatments with the herbicidal compositions, damaged only to a small degree, if at all.” left out

[11] = tested on: Zea mays (corn); assay: Example 19 field trial, 4 to 5-leaf stage: crop damage; type: in vivo; conditions: 100 g of ai/ha; 31 days after application
Method: as §1, §2, §3

[12] = tested on: winter wheat; assay: Example 10 pre-emergence application, fall: crop damage; type: in vivo, Triticum aestivum; conditions: 169 days after application
Description: as §5, §1, §2, §4

[13] = tested on: Monochoria vaginalis; assay: Example 22 field trial, 2-leaf stage: herbicidal effect; type: in vivo; conditions: 14 days after application
Method: as §1, §2, §4

[14] = tested on: winter wheat; assay: Example 11 field trial, 2- to 4-leaf stage: crop damage; type: in vivo, Triticum aestivum; conditions: 28 days after application
Method: as §1, §2, §4

[15] = tested on: winter wheat; assay: Example 15 field trial, 2- to 4-leaf stage: crop damage; type: in vivo, Triticum aestivum; conditions: 28 days after application
Method: as §1, §2, §4

[16] = tested on: Lamium purpurea; assay: Example 12 field trial, 2- to 4-leaf stage: herbicidal effect; type: in vivo; conditions: 42 days after application
Method: as §1, §2, §4

[17] = tested on: Euphorbia heterophylla; assay: Example 20 field trial, 3-leaf stage: herbicidal effect; type: in vivo; conditions: 31 days after application
Method: as §1, §2, §4

[18] = tested on: summer wheat; assay: Example 13 field trial, 2- to 4-leaf stage: crop damage; type: in vivo, Triticum aestivum; conditions: 17 days after application
Method: as §1, §2, §4

[19] = tested on: winter wheat; assay: Example 12 field trial, 2- to 4-leaf stage: crop damage; type: in vivo, Triticum aestivum; conditions: 42 days after application
Method: as §1, §2, §4

[20] = tested on: corn which is glufosinate-ammonium-resistant; assay: Example 18 field trial, 3-leaf stage: crop damage; type: in vivo, Corn (LL); conditions: 100 g of ai/ha; 31 days after application
Method: The damage and development of all above-ground parts of the plants were recorded.
Crop plants were grown outdoors on plots under natural outdoor conditions, and seeds or rhizome pieces of typical harmful plants were laid out or the natural weed growth was utilized.

[21] = tested on: Echinochloa crus-galli; assay: Example 19 field trial, 4 to 5-leaf stage: herbicidal effect; type: in vivo; conditions: 100 g of ai/ha; 31 days after application
Method: as §1, §2, §3

[22] = tested on: Setaria viridis; assay: as above; type: in vivo; conditions: 100 g of ai/ha; 31 days after application
Method: as §1, §2, §3

SMILES: CC(C)(F)c1nc(N)nc(NC(CCc2ccccc2)C2CCC2)n1 (centres unmarked) [(A1), 4-amino-6-(1-fluoro-1-methylethyl)-2-(3-phenyl-1-cyclobutylpropylamino)-1,3,5-triazine]
- herbicidal effect (%), TRZAW (crop) [1]: 0%
- herbicidal effect, CAPPBP ([2]; 25 g of ai/ha): 40%
- herbicidal effect, CAPPBP ([2]; 50 g of ai/ha): 68%
- herbicidal effect, CAPPBP ([2]; 75 g of ai/ha): 73%
- herbicidal effect, CAPPBP ([2]; 100 g of ai/ha): 79%
- herbicidal effect, SETFA ([3]; 50 g of ai/ha): 85%
- herbicidal effect, SETFA ([3]; 100 g of ai/ha): 94%
- herbicidal effect, IPOHE ([4]; 50 g of ai/ha): 85%
- herbicidal effect, IPOHE ([4]; 100 g of ai/ha): 93%
- herbicidal effect, MATCH ([5]; 25 g of ai/ha): 43%
- herbicidal effect, MATCH ([5]; 50 g of ai/ha): 58%
- herbicidal effect, MATCH ([5]; 100 g of ai/ha): 73%
- damage, ORYSA ([6]; 25 g of ai/ha): 0%
- damage, ORYSA ([6]; 50 g of ai/ha): 10%
- damage, ORYSA ([6]; 100 g of ai/ha): 13%
- damage, ORYSA ([7]; 25 g of ai/ha): 0%
- damage, ORYSA ([7]; 50 g of ai/ha): 0%
- damage, ORYSA ([7]; 100 g of ai/ha): 0%
- herbicidal effect, CAPBP [8]: 88%
- herbicidal effect, ALOMY [9]: 0%
- damage, ORYSA ([10]; 25 g of ai/ha): 0%
- damage, ORYSA ([10]; 50 g of ai/ha): 0%
- damage, ORYSA ([10]; 100 g of ai/ha): 0%
- damage, ZEAMA [11]: 0%
- damage, TRZAW ([12]; 50 g of ai/ha): 1%
- damage, TRZAW ([12]; 100 g of ai/ha): 2%
- herbicidal effect, MOOVA ([13]; 25 g of ai/ha): 3%
- herbicidal effect, MOOVA ([13]; 50 g of ai/ha): 90%
- herbicidal effect, MOOVA ([13]; 100 g of ai/ha): 95%
- damage, TRZAW ([14]; 25 g of ai/ha): 0%
- damage, TRZAW ([14]; 50 g of ai/ha): 1%
- damage, TRZAW ([14]; 75 g of ai/ha): 1%
- damage, TRZAW ([14]; 100 g of ai/ha): 2%
- damage, TRZAW ([15]; 25 g of ai/ha): 0%
- damage, TRZAW ([15]; 50 g of ai/ha): 2%
- damage, TRZAW ([15]; 100 g of ai/ha): 2%
- herbicidal effect, LAMPU ([16]; 12.5 g of ai/ha): 25%
- herbicidal effect, LAMPU ([16]; 25 g of ai/ha): 65%
- herbicidal effect, LAMPU ([16]; 50 g of ai/ha): 70%
- herbicidal effect, EPHHL ([17]; 25 g of ai/ha): 15%
- herbicidal effect, EPHHL ([17]; 50 g of ai/ha): 50%
- herbicidal effect, EPHHL ([17]; 100 g of ai/ha): 60%
- damage, TRZAS ([18]; 62.5 g of ai/ha): 5%
- damage, TRZAS ([18]; 125 g of ai/ha): 13%
- damage, TRZAW ([19]; 12.5 g of ai/ha): 0%
- damage, TRZAW ([19]; 25 g of ai/ha): 0%
- damage, TRZAW ([19]; 50 g of ai/ha): 0%
- damage, Corn (LL) [20]: 0%
- herbicidal effect, ECHCG [21]: 0%
- herbicidal effect, SETVI [22]: 0%
